For this assay, the target named is T1, RORγ (Homo sapiens, UniProt P51449).
T1 construct: expressed in transfected cells; host or cells: 293FT cells (Invitrogen), expression vector pFN26A (Promega)
T1 sequence (P51449 269-508 limits assumed): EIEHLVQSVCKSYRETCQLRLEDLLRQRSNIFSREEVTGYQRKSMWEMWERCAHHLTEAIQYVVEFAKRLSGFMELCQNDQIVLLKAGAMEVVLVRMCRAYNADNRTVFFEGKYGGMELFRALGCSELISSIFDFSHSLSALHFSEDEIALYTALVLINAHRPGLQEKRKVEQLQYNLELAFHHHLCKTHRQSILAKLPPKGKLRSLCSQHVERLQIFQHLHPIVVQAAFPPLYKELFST
Briefly: RORγ GAL4 reporter gene assay (luciferase readout, 293FT cells). As to conditions: inhibition of RORγ (GAL4-RORγ-LBD) in transfected 293FT cells, luciferase signal, overnight incubation; read-out: mean pIC50 (converted). The format is cell-based. How it is done:
RORγ GAL4 Reporter Gene Assay
Example inhibitors 1-38 were tested for their ability to inhibit RORγ activity in a RORγ GAL4 reporter gene assay. The assay procedure and results are described below.
RORγ GAL4 Reporter Gene Assay Description
A GAL4 one-hybrid reporter system employing luciferase readout was established to determine inhibition of RORγ in 293FT cells. The RORγ ligand-binding domain (LBD) was fused to the yeast GAL4 DNA binding domain (DBD) and placed under the control of the human cytomegalovirus (CMV) immediate early promoter, using expression vector pFN26A (Promega) and standard recombinant DNA cloning methods. To serve as a control in the assay, a similar vector was generated in which the GAL4-DBD was fused to Herpes simplex virus protein 16 (VP16), a constitutive transcriptional activator.
To monitor the inhibitory effect of compounds on RORγ, a transcriptional reporter construct was used. The pGL4.35 vector (Promega) contains nine copies of the GAL4 Upstream Activator Sequence (UAS). This sequence drives the transcription of the luciferase reporter gene luc2P in response to binding of a fusion protein containing the GAL4 DNA binding domain, as for example expressed by the GAL4-RORγ-LBD and GAL4-VP16 expression vectors described above. To allow a GAL4 fusion protein to drive the expression of the luciferase reporter, the pGL4.35 expression vector and the appropriate GAL4 fusion protein expression vector were bulk transfected in the 293FT cells using standard transfection techniques.
The day after transfection, cells were plated into 96 well plates, test compound was added and the plates were incubated overnight. Subsequently, the firefly luciferase activity was quantified using luciferase detection reagent and luminescence readout.
Detailed Assay Description
293FT cells (Invitrogen) were transfected with a GAL4 fusion protein expression vector (as described above) and the transcriptional reporter construct (pGL4.35, Promega). 60 μL of TransIT-293 transfection reagent (Mirus Bio) was added drop wise to 1500 μl Opti-MEM I Reduced Serum Medium (Invitrogen) and incubated at RT (RT) for 5 to 20 minutes. 1500 μL of this reagent mixture was added to 5 μg of GAL4 fusion protein expression vector and 5 μg of the transcriptional reporter construct, and incubated at RT for 20 minutes.
To harvest 293FT cells from a T75 flask, first the culture medium was taken off the cells. Subsequently, the cells were washed with Phosphate Buffered Saline (PBS) (Lonza), after which the PBS was removed. To dissociate the cells, 1 ml of TrypLE Express (Invitrogen) was added to the flask, followed by incubation at RT until the cells visually started to detach. Cells were collected in 5 mL of assay medium (DMEM culture medium (Lonza), 10% dialyzed FBS (Invitrogen) and Pen/Strep (Lonza)) to achieve a single cell suspension. 10×10^6 cells were spun down and re-suspended in 10 mL of assay medium. Subsequently, the cell suspension was added to the transfection mix tube, and then transferred as a whole to a T75 flask (Greiner), followed by overnight (16-24 hours) incubation at 37° C. and 5% CO2.
For compound screening, the cells were harvested (as described above) and counted. 13×10^6 cells were spun down, the supernatant was aspirated and the cells were re-suspended in 17.3 mL of assay medium obtaining a cell suspension of 0.75×10^6 cells/mL. 80 μL of cell suspension (60,000 cells) was plated per well into a white, flat bottom, tissue culture treated, 96 well screening plates (Greiner).
Test compounds were diluted, starting from a 10 mM dimethylsulfoxide (DMSO) stock solution, to serial dilutions in DMSO at 500× the final test concentration. Subsequently, these solutions were diluted to 5× the final test concentration in two 10-fold-dilution steps in assay medium. The final DMSO concentration of the 5× test compound solution was 1%. […]
For orientation: Reporter assays use an easily measured gene product as a stand-in for the process of interest.
On to `O=C(Cc1ccc(S(=O)(=O)CC2CC2)nc1)Nc1ccc(C(O)(C2CCCC2)C(F)(F)F)cc1` (stereo not drawn) [Example 14, N-[4-(1-cyclopentyl-2,2,2-trifluoro-1-hydroxy-ethyl)phenyl]-2-[6-(cyclopropylmethylsulfonyl)-3-pyridyl]acetamide], for which the IC50 is no more than 1000 nM. Under `CCCC(O)(c1ccc(NC(=O)Cc2ccc(S(=O)(=O)CC3CC3)nc2)cc1)C(F)(F)F` (stereo not drawn) [Example 11, 2-[6-(cyclopropylmethylsulfonyl)-3-pyridyl]-N-[4-[1-hydroxy-1-(trifluoromethyl)butyl]phenyl]acetamide] stands no more than 1000 nM; under `COc1cc(NC(=O)Cc2ccc(S(=O)(=O)CC3CC3)nc2)ccc1C(O)(C(F)(F)F)C(F)(F)F` [Example 6, 2-[6-(cyclopropylmethylsulfonyl)-3-pyridyl]-N-[3-methoxy-4-[2,2,2-trifluoro-1-hydroxy-1-(trifluoromethyl)ethyl]phenyl]acetamide], no more than 1000 nM; under `CC(C)OC(c1ccc(NC(=O)Cc2ccc(S(=O)(=O)CC3CC3)cn2)cc1)(C(F)(F)F)C(F)(F)F` [Example 30, 2-[5-(cyclopropylmethylsulfonyl)-2-pyridyl]-N-[4-[2,2,2-trifluoro-1-isopropoxy-1-(trifluoromethyl)ethyl]phenyl]acetamide], no more than 100 nM. For the compound `CC(C)CC(O)(c1ccc(NC(=O)Cc2ccc(S(=O)(=O)CC3CC3)nc2)cc1)C(F)(F)F` (stereo not drawn) [Example 12, 2-[6-(cyclopropylmethylsulfonyl)-3-pyridyl]-N-[4-[1-hydroxy-3-methyl-1-(trifluoromethyl)butyl]phenyl]acetamide], the IC50 is no more than 100 nM.

For the compound `O=C(Cc1ccc(S(=O)(=O)CC2CC2)nc1)Nc1ccc(C(OCCO)(C(F)(F)F)C(F)(F)F)cc1` [Example 28, 2-[6-(cyclopropylmethylsulfonyl)-3-pyridyl]-N-[4-[2,2,2-trifluoro-1-(2-hydroxyethoxy)-1-(trifluoromethyl)ethyl]phenyl]acetamide], the IC50 was no more than 1000 nM.

As for `O=C(Cc1ccc(S(=O)(=O)CC2CC2)nc1)Nc1ccc(C(O)(C2CC2)C2CC2)cc1` [Example 18, 2-[6-(cyclopropylmethylsulfonyl)-3-pyridyl]-N-[4-[dicyclopropyl(hydroxy)methyl]phenyl]acetamide], the IC50 was no more than 1000 nM. For `O=C(Cc1ccc(S(=O)(=O)CC2CC2)nc1)Nc1ccc(C(OCC2COC2)(C(F)(F)F)C(F)(F)F)cc1` [Example 26, 2-[6-(cyclopropylmethylsulfonyl)-3-pyridyl]-N-[4-[2,2,2-trifluoro-1-(oxetan-3-ylmethoxy)-1-(trifluoromethyl)ethyl]phenyl]acetamide] the value was no more than 1000 nM. Under `O=C(Cc1ccc(S(=O)(=O)CC2CC2)nn1)Nc1ccc(C(O)(C(F)(F)F)C(F)(F)F)cc1` [Example 37, 2-[6-(cyclopropylmethylsulfonyl)pyridazin-3-yl]-N-[4-[2,2,2-trifluoro-1-hydroxy-1-(trifluoromethyl)ethyl]phenyl]acetamide] stands no more than 1000 nM; under `O=C(Cc1ccc(S(=O)(=O)CC2CC2)nc1)Nc1ccc(C(O)(C(F)(F)F)C(F)(F)F)cc1` [Example 1, 2-[6-(cyclopropylmethylsulfonyl)-3-pyridyl]-N-[4-[2,2,2-trifluoro-1-hydroxy-1-(trifluoromethyl)ethyl]phenyl]acetamide], no more than 100 nM; under `O=C(Cc1ccc(S(=O)(=O)CC2CC2)nc1)Nc1ccc(C(O)(C(F)(F)F)C(F)(F)F)cc1F` [Example 8, 2-[6-(cyclopropylmethylsulfonyl)-3-pyridyl]-N-[2-fluoro-4-[2,2,2-trifluoro-1-hydroxy-1-(trifluoromethyl)ethyl]phenyl]acetamide], no more than 100 nM. Under `O=C(Cc1ccc(S(=O)(=O)CC2CC2)nc1)Nc1ccc(C(O)(CC2CCCCC2)C(F)(F)F)cc1` (stereo not drawn) [Example 16, N-[4-[1-(cyclohexylmethyl)-2,2,2-trifluoro-1-hydroxy-ethyl]phenyl]-2-[6-(cyclopropylmethylsulfonyl)-3-pyridyl]acetamide] stands no more than 1000 nM. Regarding `Cc1nc(S(=O)(=O)CC2CC2)ccc1CC(=O)Nc1ccc(C(O)(C(F)(F)F)C(F)(F)F)cc1` [Example 24, 2-[6-(cyclopropylmethylsulfonyl)-2-methyl-3-pyridyl]-N-[4-[2,2,2-trifluoro-1-hydroxy-1-(trifluoromethyl)ethyl]phenyl]acetamide], the IC50 is no more than 1000 nM.

Turning to `Cc1cc(S(=O)(=O)CC2CC2)ncc1CC(=O)Nc1ccc(C(O)(C(F)(F)F)C(F)(F)F)cc1` [Example 23, 2-[6-(cyclopropylmethylsulfonyl)-4-methyl-3-pyridyl]-N-[4-[2,2,2-trifluoro-1-hydroxy-1-(trifluoromethyl)ethyl]phenyl]acetamide], the IC50 was no more than 1000 nM.

Consider `COCCOC(c1ccc(NC(=O)Cc2ccc(S(=O)(=O)CC3CC3)nc2)cc1)(C(F)(F)F)C(F)(F)F` [Example 27, 2-[6-(cyclopropylmethylsulfonyl)-3-pyridyl]-N-[4-[2,2,2-trifluoro-1-(2-methoxyethoxy)-1-(trifluoromethyl)ethyl]phenyl]acetamide], for which the IC50 is no more than 100 nM. For `O=C(Cc1ccc(S(=O)(=O)CC2CC2)nc1)Nc1ccc(C(O)(c2ccccc2)C(F)(F)F)cc1` (stereo not drawn) [Example 19, 2-[6-(cyclopropylmethylsulfonyl)-3-pyridyl]-N-[4-(2,2,2-trifluoro-1-hydroxy-1-phenyl-ethyl)phenyl]acetamide] the value was no more than 100 nM; for `O=C(Cc1ncc(S(=O)(=O)CC2CC2)cn1)Nc1ccc(C(O)(C(F)(F)F)C(F)(F)F)cc1` [Example 35, 2-[5-(cyclopropylmethylsulfonyl)pyrimidin-2-yl]-N-[4-[2,2,2-trifluoro-1-hydroxy-1-(trifluoromethyl)ethyl]phenyl]acetamide], no more than 1000 nM; for `Cc1cc(C(O)(C(F)(F)F)C(F)(F)F)ccc1NC(=O)Cc1ccc(S(=O)(=O)CC2CC2)nc1` [Example 7, 2-[6-(cyclopropylmethylsulfonyl)-3-pyridyl]-N-[2-methyl-4-[2,2,2-trifluoro-1-hydroxy-1-(trifluoromethyl)ethyl]phenyl]acetamide], no more than 1000 nM. For `O=C(Cc1ccc(S(=O)(=O)CC2CC2)nc1)Nc1ccc(C(O)(C(F)(F)F)C(F)(F)F)c(Cl)c1` [Example 5, N-[3-chloro-4-[2,2,2-trifluoro-1-hydroxy-1-(trifluoromethyl)ethyl]phenyl]-2-[6-(cyclopropylmethylsulfonyl)-3-pyridyl]acetamide] the value was no more than 100 nM; for `COC(c1ccc(NC(=O)Cc2ccc(S(=O)(=O)CC3CC3)cn2)cc1)(C(F)(F)F)C(F)(F)F` [Example 34, 2-[5-(cyclopropylmethylsulfonyl)-2-pyridyl]-N-[4-[2,2,2-trifluoro-1-methoxy-1-(trifluoromethyl)ethyl]phenyl]acetamide], no more than 100 nM; for `O=C(Cc1ccc(S(=O)(=O)CC2CC2)cn1)Nc1ccc(C(O)(C(F)(F)F)C(F)(F)F)cc1` [Example 29, 2-[5-(cyclopropylmethylsulfonyl)-2-pyridyl]-N-[4-[2,2,2-trifluoro-1-hydroxy-1-(trifluoromethyl)ethyl]phenyl]acetamide], no more than 100 nM.

For the origin of these results see patent US10118895B2, “ROR gamma (RORγ) modulators” (LEAD PHARMA HOLDING B.V., priority 2015, dated 2018).
